Data set [1] deals with T1, human MATE1 (Homo sapiens, UniProt Q96FL8).
T1 construct: expressed in transfected cells; host or cells: HEK293 (HEK293/hMATE1; gift from Dr. Inoue, Tokyo University of Pharmacy and Life Science)
T1 sequence (Q96FL8 1-570): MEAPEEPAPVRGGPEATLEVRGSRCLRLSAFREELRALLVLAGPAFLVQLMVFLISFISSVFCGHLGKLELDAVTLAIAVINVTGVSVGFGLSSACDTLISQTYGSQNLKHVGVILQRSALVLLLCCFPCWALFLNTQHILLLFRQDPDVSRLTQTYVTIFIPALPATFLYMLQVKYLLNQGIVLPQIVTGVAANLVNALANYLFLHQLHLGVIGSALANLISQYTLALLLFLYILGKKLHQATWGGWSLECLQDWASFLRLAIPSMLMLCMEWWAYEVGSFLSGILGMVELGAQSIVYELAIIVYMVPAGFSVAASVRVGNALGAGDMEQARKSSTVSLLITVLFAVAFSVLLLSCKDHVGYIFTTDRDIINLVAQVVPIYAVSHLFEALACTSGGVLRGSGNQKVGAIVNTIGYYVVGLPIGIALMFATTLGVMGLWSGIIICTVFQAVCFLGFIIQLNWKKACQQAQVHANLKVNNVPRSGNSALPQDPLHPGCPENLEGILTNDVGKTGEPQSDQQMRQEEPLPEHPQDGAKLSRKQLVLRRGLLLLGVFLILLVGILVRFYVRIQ
Put plainly: Uptake of [3H]MPP+ by MATE1-expressing HEK293 cells. Particulars: for MATE1-mediated uptake of [3H]MPP+, percentage of control: HEK293/hMATE1 minus mock, 0.25 nM [3H]MPP+, 0.5 min, 37°C; for MATE1-mediated uptake of MPP+, % of Control: after subtraction of uptake by mock cells; for MATE1-mediated uptake of MPP+, % of Control / C/M ratio of MPP+ uptake, MATE1-expressing cells: replicates and mean. The data set is classed as cell-based. On the procedure: HEK293 cells transfected with human MATE1 (HEK293/hMATE1) and vector alone (mock) were gifts from Dr. Inoue (Tokyo University of Pharmacy and Life Science). […] HEK293/mock and HEK293/hMATE1 cells were plated at a density of 3.0 × 10^5 cells/well on 24-well plates and cultured for two days before an uptake assay. […] Radioactivity was measured with a liquid scintillation counter (Hitachi Aloka Medical, Tokyo, Japan). Part of the lysate was used for the determination of total protein amount with Bio-Rad protein assay dye reagent. Uptake of MPP^+ was expressed as a cell-to-medium ratio (μL/mg protein) obtained by dividing the uptake amount by the concentration of substrate in the TM. Percentages of control were calculated as the ratio of MATE1-mediated uptake of MPP^+ that obtained after subtraction of the uptake of MPP^+ by mock cells in compound treated groups to that in control group.

Data set [2] relates to Mock cells. Put plainly: Uptake of MPP+ by mock cells (background for MATE1-expressing cells). The conditions noted are these: replicates and mean. Type of data set: cell-based. On the procedure: Dunnett's test was used for uptake study to compare the control group to groups treated with drugs.
Percentages of control were calculated as the ratio of MATE1-mediated uptake of MPP^+ that obtained after subtraction of the uptake of MPP^+ by mock cells in compound treated groups to that in control group.

A short description of data set [3]: Plasma concentration of oxonic acid and adenine in hyperuricemic rats. The data set is classed as in vivo, rat. The conditions noted are these: hyperuricemic rats given oral oxonic acid […] and adenine 0.1 g/kg; detection limit 100 μM for oxonic acid.

Several values for one entry are separate records, joined by “and”; a condition that tells them apart may be missing. Equal values may be shown once.

For the compound `O=C(O)c1nc(=O)[nH]c(=O)[nH]1` [oxonic acid], the “MATE1-mediated uptake of [3H]MPP+, percentage of control” value in data set [1] (50 μM test compound) is 101.5%; in data set [1] (500 μM test compound), 98.2%. Also, the “Inhibitory effect on MATE1-mediated MPP+ uptake” value in data set [1] (50 and 500 μM of each) was “No inhibitory effects”. The “MATE1-mediated uptake of MPP+, % of Control” value in data set [1] (Oxonic acid 50 µM) was 93.3 % of Control and 90.1 % of Control and 121.0 % of Control; in data set [1] (Oxonic acid 50 µM, mean), 101.5 % of Control; in data set [1] (Oxonic acid 500 µM) it was 118.1 % of Control and 83.7 % of Control and 92.8 % of Control; in data set [1] (Oxonic acid 500 µM, mean), 98.2 % of Control. The “C/M ratio of MPP+ uptake, MATE1-expressing cells” value was 177 µL/mg protein and 232 µL/mg protein and 183 µL/mg protein in data set [1] (Oxonic acid 50 µM); 197 µL/mg protein in data set [1] (Oxonic acid 50 µM, mean); 173 µL/mg protein and 190 µL/mg protein and 235 µL/mg protein in data set [1] (Oxonic acid 500 µM); 199 µL/mg protein in data set [1] (Oxonic acid 500 µM, mean). Further, the “C/M ratio of MPP+ uptake, Mock cells” value in data set [2] (Oxonic acid 50 µM) is 18.7 µL/mg protein and 13.1 µL/mg protein and 12.3 µL/mg protein; in data set [2] (Oxonic acid 50 µM, mean) it was 14.7 µL/mg protein; in data set [2] (Oxonic acid 500 µM), 19.2 µL/mg protein and 28.0 µL/mg protein and 20.9 µL/mg protein; in data set [2] (Oxonic acid 500 µM, mean), 22.7 µL/mg protein. Also, the Plasma concentration result in data set [3] is listed as “lower than 100 μM”.

Source of the values: publication PMC6450621, “Changes of drug pharmacokinetics mediated by downregulation of kidney organic cation transporters Mate1 and Oct2 in a rat model of hyperuricemia” (PLoS ONE, 2019).
